Several values for one entry are separate records, joined by “and”; a condition that tells them apart may be missing. Equal entries are not always repeated.
Tests used:
[1] = system: NIH3T3 stably expressing the KFERQ-PS-Dendra; assay: CMA activity, KFERQ-PS-Dendra fluorescent reporter in NIH3T3 mouse fibroblasts; type: cell-based; design: CMA activity (Fig. 1d), MEAN / CMA activity (Fig. 1e-g), mean / CMA activity (Fig. 1d), individual experiments / CMA activity, mean (Fig. S2c, second panel) / CMA activity, mean (Fig. S2c, first panel) / CMA activity, mean (Fig. S2c, third panel): unit not given here; conditions: for CMA activity (Fig. 1e-g), mean: n = 4
Method: (§1) Cells were transduced with lentivirus carrying the KFERQ-PS-Dendra reporter as before. Cells were photoactivated by exposure to a 3.5 mA (current constant) light emitting diode (LED: Norlux, 405 nm) for 3 min and then plated in glass-bottom 96 well plates. At the desired times, cells were fixed with 4% PFA and imaged using high-content microscopy (Operetta system, Perkin Elmer). Images were quantified using the manufacturer’s software in a minimum of 1,200 cells in 9 independent fields per well. […] This was particularly important in the case of primary human cells where the efficiency of transduction was ~65%. To avoid confounding effects for drug-induced changes in cell volume or adherence to the plate that could bring a fraction of the cells per field outside of focus, we set a threshold to count only […] that have at least 1/10 of the average number of […] detected in the untreated wells for each cell type (3–4 puncta/cell in the case of NIH3T3 and N2a cells and 5 puncta/cell in primary human fibroblasts).

[2] = system: NIH3T3 cells stably expressing the mCherry-GFP-LC3 reporter; assay: Macroautophagy activity, mCherry-GFP-LC3 reporter; type: cell-based, mouse
Method: Cells were transduced with a lentiviral vector expressing mCherry-GFP-LC3[35], fixed and flux determined as the conversion of dual fluorescence puncta (autophagosomes) into only red fluorescent puncta (autolysosomes). Flux was also measured by immunoblot for LC3 in cells incubated for 6 h with 20 mM NH4Cl/100 μM leupeptin, by discounting the intensity of LC3 in non-treated cells from that in cells treated with the inhibitors.

[3] = system: primary human fibroblast expressing the KFERQ-PS-Dendra reporter; assay: CMA activity, KFERQ-PS-Dendra reporter in primary human fibroblasts; type: cell-based; design: key to CMA activity, mean (Fig. S2c): puncta per cell
Method: as §1

[4] = c0 = 2 (axis unlabelled; ANOVA calls row factor Time)

Cc1ccc(C2=Nc3ccc(Cl)cc3OC2)cc1 [AR7, reference compound]
CMA activity (Fig. 1d), MEAN ([1]; 20 μM of each compound, n = 3 independent experiments): 1.943 | CMA activity (Fig. 1d), individual experiments ([1]; 20 μM of each compound, single experiments): 1.682 and 2.334 and 1.814 | CMA activity (Fig. 1e-g), mean ([1]; 12h, concentration 0.02 (unit not given)): 12.0505 | CMA activity (Fig. 1e-g), mean ([1]; 12h, concentration 0.2): 11.7342 | CMA activity (Fig. 1e-g), mean ([1]; 12h, concentration 2): 11.803 | CMA activity (Fig. 1e-g), mean ([1]; 12h, concentration 5): 19.8949 | CMA activity (Fig. 1e-g), mean ([1]; 12h, concentration 10): 20.5334 | CMA activity (Fig. 1e-g), mean ([1]; 12h, concentration 20): 21.2219 | CMA activity (Fig. 1e-g), mean ([1]; 12h, concentration 30): 22.9989 | CMA activity (Fig. 1e-g), mean ([1]; 12h, concentration 40): 22.6487 | CMA activity (Fig. 1e-g), mean ([1]; 12h, concentration 50): 26.5841 | CMA activity (Fig. 1e-g), mean ([1]; 24h, concentration 0.02): 9.918 | CMA activity (Fig. 1e-g), mean ([1]; 24h, concentration 0.2): 11.4731 | CMA activity (Fig. 1e-g), mean ([1]; 24h, concentration 2): 13.7252 | CMA activity (Fig. 1e-g), mean ([1]; 24h, concentration 5): 18.3275 | CMA activity (Fig. 1e-g), mean ([1]; 24h, concentration 10): 23.1811 | CMA activity (Fig. 1e-g), mean ([1]; 24h, concentration 20): 24.726 | CMA activity (Fig. 1e-g), mean ([1]; 24h, concentration 30): 25.9835 | CMA activity (Fig. 1e-g), mean ([1]; 24h, concentration 40): 28.2999 | CMA activity (Fig. 1e-g), mean ([1]; 24h, concentration 50): 27.6884 | CMA activity (Fig. 1h-j), mean, untreated (0) = 1 ([1]; concentration 0.2, 12+12w (12 h, then 12 h after washing out)): 0.9356 | CMA activity (Fig. 1h-j), mean, untreated (0) = 1 ([1]; concentration 0.2, 12h): 1.057 | CMA activity (Fig. 1h-j), mean, untreated (0) = 1 ([1]; concentration 0.2, 24h): 0.9789 | CMA activity (Fig. 1h-j), mean, untreated (0) = 1 ([1]; concentration 2, 12+12w): 0.9942 | CMA activity (Fig. 1h-j), mean, untreated (0) = 1 ([1]; concentration 2, 12h): 1.064 | CMA activity (Fig. 1h-j), mean, untreated (0) = 1 ([1]; concentration 2, 24h): 1.171 | CMA activity (Fig. 1h-j), mean, untreated (0) = 1 ([1]; concentration 5, 12+12w): 1.015 | CMA activity (Fig. 1h-j), mean, untreated (0) = 1 ([1]; concentration 5, 12h): 1.7927 | CMA activity (Fig. 1h-j), mean, untreated (0) = 1 ([1]; concentration 5, 24h): 1.564 | CMA activity (Fig. 1h-j), mean, untreated (0) = 1 ([1]; concentration 10, 12+12w): 0.9858 | CMA activity (Fig. 1h-j), mean, untreated (0) = 1 ([1]; concentration 10, 12h): 1.85 | CMA activity (Fig. 1h-j), mean, untreated (0) = 1 ([1]; concentration 10, 24h): 1.978 | CMA activity (Fig. 1h-j), mean, untreated (0) = 1 ([1]; concentration 20, 12+12w): 0.9968 | CMA activity (Fig. 1h-j), mean, untreated (0) = 1 ([1]; concentration 20, 12h): 1.912 | CMA activity (Fig. 1h-j), mean, untreated (0) = 1 ([1]; concentration 20, 24h): 2.11 | CMA activity (Fig. 1h-j), mean, untreated (0) = 1 ([1]; concentration 30, 12+12w): 1.224 | CMA activity (Fig. 1h-j), mean, untreated (0) = 1 ([1]; concentration 30, 12h): 2.072 | CMA activity (Fig. 1h-j), mean, untreated (0) = 1 ([1]; concentration 30, 24h): 2.217 | effect on macroautophagy ([2]; NIH3T3, MRT-sensitive proteolysis, LC3-II flux, mCherry-GFP-LC3 reporter): did not have the inhibitory effect on macroautophagy | APG (Fig. S3e) [2, 4]: 0.9242 | AUT (Fig. S3e) [2, 4]: 2.505 | AV (Fig. S3e) [2, 4]: 3.429 | APG (Fig. S3e) ([2]; c0 = 5 (axis unlabelled)): 0.8222 | AUT (Fig. S3e) ([2]; c0 = 5 (axis unlabelled)): 2.321 | AV (Fig. S3e) ([2]; c0 = 5 (axis unlabelled)): 3.1431 | APG (Fig. S3e) ([2]; c0 = 10 (axis unlabelled)): 0.7738 | AUT (Fig. S3e) ([2]; c0 = 10 (axis unlabelled)): 2.246 | AV (Fig. S3e) ([2]; c0 = 10 (axis unlabelled)): 3.0194 | APG (Fig. S3e) ([2]; c0 = 15 (axis unlabelled)): 0.7216 | AUT (Fig. S3e) ([2]; c0 = 15 (axis unlabelled)): 2.244 | AV (Fig. S3e) ([2]; c0 = 15 (axis unlabelled)): 2.965 | APG (Fig. S3e) ([2]; c0 = 20 (axis unlabelled)): 0.9029 | AUT (Fig. S3e) ([2]; c0 = 20 (axis unlabelled)): 2.059 | AV (Fig. S3e) ([2]; c0 = 20 (axis unlabelled)): 2.962 | APG (Fig. S3e) ([2]; c0 = 25 (axis unlabelled)): 0.9112 | AUT (Fig. S3e) ([2]; c0 = 25 (axis unlabelled)): 2.774 | AV (Fig. S3e) ([2]; c0 = 25 (axis unlabelled)): 3.685 | APG (Fig. S3e) ([2]; c0 = 30 (axis unlabelled)): 0.9867 | AUT (Fig. S3e) ([2]; c0 = 30 (axis unlabelled)): 2.8387 | AV (Fig. S3e) ([2]; c0 = 30 (axis unlabelled)): 3.825 | APG (Fig. S3e) ([2]; c0 = 40 (axis unlabelled)): 1.111 | AUT (Fig. S3e) ([2]; c0 = 40 (axis unlabelled)): 2.723 | AV (Fig. S3e) ([2]; c0 = 40 (axis unlabelled)): 3.834 | APG (Fig. S3e) ([2]; c0 = 50 (axis unlabelled)): 0.7488 | AUT (Fig. S3e) ([2]; c0 = 50 (axis unlabelled)): 3.18 | AV (Fig. S3e) ([2]; c0 = 50 (axis unlabelled)): 3.929 | CMA activity, mean (Fig. S2c) ([3]; concentration 0.02): 24.0456 | CMA activity, mean (Fig. S2c) ([3]; concentration 0.2): 28.2677 | CMA activity, mean (Fig. S2c) ([3]; concentration 2): 18.5469 | CMA activation in human cells ([3]; in words): very discrete

— PMC9304322, “Targeting retinoic acid receptor alpha-corepressor interaction activates chaperone-mediated autophagy and protects against retinal degeneration” (Nature Communications, 2022)
